Data as given in US11339124B2, “3-(benzylamino)-4-(cyclohexylamino)-n-(2-(piperazin-1-yl)ethyl)benzenesulfonamide derivatives and related ferrostatin-1 analogues as cell death inhibitors for treating e.g. stroke” (VIB VZW, priority 2018, dated 2022).
“And” between values parts separate entries of the source, which are not always exact repeats. Equal values may be shown once. “Also recorded” adds a separate entry of the source. Read-outs that look alike come from different tables or passages of the source. Marks after values point to notes of the source that are not given here.

Key:
[1] = Plasma stability, human plasma; format: in vitro ADME; conditions: 37° C., remaining parent compound, read-out: Plasma stability (% recovery after 6 h), Human
Experimental: 5 μl of a 10 mM stock solution of the compound in DMSO was added to 995 μl of plasma to obtain a 50 μM final solution. The mixture was gently shaken for 6 h at 37° C. Aliquots of 100 μl were taken at various time points (0, 0.5 h, 1 h, 2 h, 3 h and 6 h) and diluted with 400 μl of cold methanol (stored at 4° C.). The suspension was centrifuged at 14000 rpm for 5 min. 50 μl of the supernatant was diluted with 950 μl of methanol and analysed with LC/MS/MS. The samples were analysed in triplicate. The experiment was done in duplicate. […] Enalapril maleate was used as a control in mice, rats, and in human.

[2] = system: IMR-32 Neuroblastoma cells; assay: Erastin-induced ferroptosis in IMR-32 neuroblastoma cells (Sytox Green cell death readout); format: cell-based; conditions: Homo sapiens; IMR-32 cells, 10 μM erastin, compounds 1 nM to 1 μM, triplicate; read-out: IC50, antiferroptotic activity in response to erastin-induced ferroptosis
Experimental: In the present invention the potency of a compound inhibiting (or reducing) ferroptosis and/or oxytosis are determined in in vitro or in vivo assays. Typically in vitro assays are used to measure the potency of a candidate compound. Examples of suitable in vitro assays are cellular assays. One non-limiting example of an assay involves the use of the IMR-32 neuroblastoma cell line. The latter is stimulated to enter into ferroptosis upon stimulation with 10 μM erastin, a documented ferroptosis inducer (see for example Dixon et al (2012) Cell 149, 1060-1072 and ferroptosis inhibitors are evaluated for the prevention of erastin induced ferroptosis. Yet another assay is based the glutamate-induced cell death in the hippocampal cell line HT22 and ferroptosis/oxytosis inhibitors are evaluated for the prevention of cell death (see Henke N. et al (2013) Cell Death and Disease 4, e470). Still another assay is based on the sorafinib induced cell death (described to be iron dependent cell death) in hepatocellular carcinoma cells and ferroptosis inhibitors are evaluated for the prevention of cell death (see Louandre C. et al (2013) Int. J. Cancer 133, 1732). The calculated potency of a compound inhibiting ferroptosis and/or oxytosis is typically depicted as an IC50 value. Examples of suitable in vivo assays are typically pre-clinical disease models of for example mice for the diseases benefiting the application of ferroptosis and/or oxytosis inhibitors, as described herein. One non-limiting example of an in vivo assay is based on inducing liver damage in mice by administering the herbicide diquat dibromide monohydrate and ferroptosis inhibitors are evaluated based on reduced levels of liver transaminases in serum (see Ran Q et al (2004) J. Biol. Chem. 279, 53, 55137).
The IC50 values for the individual compounds of the invention were determined in the neuroblastoma, IMR-32 cell line. In brief, IMR-32 cells were subjected to 10 μM erastin, the latter compound is known to induce ferroptosis. A concentration gradient (ranging from 1 nM to 1 μM) of the compounds was applied to the cells. These experiments were performed in a 96-well format (in triplicate), and cell death was analyzed in a fluorescent plate reader by use of a fluorescent cell death dye (1.5 μM Sytox Green). The IC50 values depicted in Table 1 are the concentration values for the individual compounds which are able to overcome ferroptosis.

[3] = system: experimental autoimmune encephalomyelitis model; assay: Experimental autoimmune encephalomyelitis (EAE) model, therapeutic intervention; format: in vivo; conditions: C57BL/6N male mice, daily ip from clinical score 2, scale 0 to 6 (FIG. 6); Hydrochloride
Experimental: 9-10-week-old C57BL/6N male mice were immunized subcutaneously with an emulsion of (MOG) 35-55 peptide (10 mg/kg) and CFA supplemented with Mycobacterium tuberculosis H37RA (50 mg/kg). The mice received an intraperitoneal injection of pertussis toxin (5 ug/kg) at the time of immunization and 48 h later. In a therapeutic procedure, mice that reached the clinical sore of 2 were injected intraperitoneally every day with equimolar amounts of Fer-1, compound 39, Liproxtatin-1 or vehicle (˜1-mg/kg) and were scored daily. Clinical signs of disease were scored on a scale of 0 to 6, as follows: 0, normal; 1, weakness of tail; 2, complete loss of tail tonicity; 3, partial hind limb paralysis; 4, complete hind limb paralysis; 5, forelimb paralysis or moribund; and 6, death (McGuire C et al (2013) J. Immunol. 190(6): 2896).
Experimental autoimmune encephalomyelitis (EAE) is an experimental mouse for multiple sclerosis.

[4] = Tissue distribution in rats 24 h after iv dose; format: in vivo; conditions: rat, 5 mg/kg iv; for concentration at 24 h: male, Wistar, iv
Experimental: To assess the extent of tissue distribution of compound 39, various organs (liver, kidney and lungs) of all three rats were collected on ice at necropsy 24 hours after administration before being homogenized and analyzed.
Each rat received an iv dose at 5 mg/kg and the internal organs were collected at narcopsy at 24 h. The organs were homogenized and further processed by protein precipitation (n=3) and centrifugation. Analysis of the samples was conducted by LC-MS.
Tissues (liver, kidneys and lungs) were collected on ice at necropsy at 24 h (after prior exsanguination), homogenized using a gentle MACS™ Dissociator and stored at −80° C. until analysis. The tissue samples for LC-MS were further processed by protein precipitation (n=3) by diluting 20 μL of the homogenate with 80 μL ACN containing IS (tolbutamide). After centrifugation, the supernatant was further diluted in the appropriate solvent.

[5] = after 24 h, one value per rat, Hydrochloride, 5 mg/kg

Row | Structure (SMILES) | recovery at 6 h, 50 μM [1] | IC50 [2] | Clinical disease scores during EAE pathology [3] | concentration at 24 h ([4]; kidney, 5 mg/kg, after 24 h, one value per rat, read-out: Tissue distribution, Kidney) | concentration at 24 h ([4]; liver, 5 mg/kg, after 24 h, one value per rat, read-out: Tissue distribution, Liver) | concentration at 24 h ([4]; lung, 5 mg/kg, after 24 h, one value per rat, read-out: Tissue distribution, Lung) | Concentrations in all analyzed tissues (liver, kidney, lungs) ([4]; 24 hours after administration) | Tissue distribution, Kidney [4, 5] | Tissue distribution, Liver [4, 5] | Tissue distribution, Lung [4, 5]
1 | CNCCNS(=O)(=O)c1ccc(NC2CCCCC2)c(NCc2ccccc2)c1.Cl [Compound 37, 3-(benzylamino)-4-(cyclohexylamino)-N-(2-(methylamino)ethyl)benzenesulfonamide Hydrochloride] | 90.3% | 3 nM |  |  |  |  |  |  |  | 
2 | Cl.NCCNS(=O)(=O)c1ccc(NC2CCCCC2)c(NCc2ccccc2)c1 [Compound 38, N-(2-aminoethyl)-3-(benzylamino)-4-(cyclohexylamino)benzenesulfonamide Hydrochloride] | 100% | 12 nM |  |  |  |  |  |  |  | 
3 | Cl.O=S(=O)(NCCN1CCNCC1)c1ccc(NC2CCCCC2)c(NCc2ccccc2)c1 [Compound 39, 3-(benzylamino)-4-(cyclohexylamino)-N-(2-(piperazin-1-yl)ethyl)benzenesulfonamide Hydrochloride] | 84.2% | 10 nM | ameliorates clinical signs; also recorded: improved the clinical disease scores | 200 ng/g | 230 ng/g | 480 ng/g | Significant concentrations | 0.35 mg/kg organ and 0.38 mg/kg organ | 0.22 mg/kg organ and 0.15 mg/kg organ | 0.19^a mg/kg organ and 0.53 mg/kg organ
